Data: publication PMC9134009 (RSC Advances, 2021)

Tested on: human gastric cancer cell line SGC7901
Assay: CCK-8 in vitro cytotoxicity test, SGC7901
Format: cell-based
Details: read-out: IC50 (nM) SGC7901; CCK-8, 72 h exposure, n = 3

N.N.[Cl][Pt][Cl] [cisplatin]
IC50: 927 ± 77.6 nM
